Assays:
[1] = test system: ECHCO (Echinochloa colona, junglerice); test: In-water applied weed control, transplanted paddy rice, greenhouse (Example II); assay type: in vivo, Echinochloa colona (L.) Link
Protocol: (§1) Weed seeds or nutlets of the desired test plant species were planted in puddled soil (mud) prepared by mixing a shredded, non-sterilized mineral soil (50.5 percent silt, 25.5 percent clay, and 24 percent sand, with a pH of about 7.6 and an organic matter content of about 2.9 percent) and water at a 1:1 volumetric ratio. The prepared mud was dispensed in 365 mL aliquots into 16-ounce (oz.) non-perforated plastic pots with a surface area of 86.59 square centimeters (cm^2) leaving a headspace of 3 centimeters (cm) in each pot. Rice seeds were planted in Sun Gro MetroMix® 306 planting mixture, which typically has a pH of 6.0 to 6.8 and an organic matter content of about 30 percent, in plastic plug trays. Seedlings at the second or third leaf stage of growth were transplanted into 860 mL of mud contained in 32-oz. non-perforated plastic pots with a surface area of 86.59 cm^2 4 days prior to herbicide application. The paddy was created by filling the headspace of the pots with 2.5 to 3 cm of water. When required to ensure good germination and healthy plants, a fungicide treatment and/or other chemical or physical treatment was applied. The plants were grown for 4-22 days in a greenhouse with an approximate 14 h photoperiod which was maintained at about 29′C during the day and 26° C. during the night. Nutrients were added as Osmocote® (19:6:12, N:P:K+minor nutrients) at 2 g per 16-oz. pot and 4 g per 32-oz. pot. Water was added on a regular basis to maintain the paddy flood, and supplemental lighting was provided with overhead metal halide 1000-Watt lamps as necessary. The plants were employed for testing when they reached the first through fourth true leaf stage.
(§2) Treatments consisted of the acid or esters of 4-amino-3-chloro-5-fluoro-6-(4-chloro-2-fluoro-3-methoxy-phenyl)pyridine-2-carboxylic acid (compound A) each formulated as an SC and various herbicidal components alone and in combination. Forms of compound A were applied on an acid equivalent basis.
(§3) Other herbicidal components were applied on an active ingredient basis and included acetolactate synthase (ALS)-inhibiting herbicides (sulfonylurea chemical class), azimsulfuron formulated as Gulliver®, bensulfuron-methyl formulated as Londax® 60DF, cyclosulfamuron (technical grade materail), ethoxysulfuron formulated as Sunrice® 15 WDG, flucetosulfuron formulated as Sukedachi® 1KG G, imazosulfuron formulated as Brazzos®, metsulfuron-methyl formulated as Lorate®, nicosulfuron formulated as Accent®, orthosulfamuron formulated as Strada® WG, propyrisulfuron formulated as Zeta One®, and rimsulfuron formulated as Matrix® WG.
(§4) Treatment requirements for each compound or herbicidal component were calculated based upon the rates being tested, the concentration of active ingredient or acid equivalent in the formulation, an application volume of 2 mL per component per pot, and an application area of 86.59 cm^2 per pot.
(§5) For formulated compounds, a measured amount was placed in an individual 100 or 200 mL glass vial and was dissolved in a volume of 1.25% (v/v) Agri-Dex® crop oil concentrate to obtain application solutions.
(§6) For technical grade compounds, a weighed amount was placed in an individual 100 to 200 mL glass vial and was dissolved in a volume of acetone to obtain concentrated stock solutions. […] The concentrated stock solutions obtained were diluted with an equivalent volume of an aqueous mixture containing 2.5% (v/v) crop oil concentrate so that the final application solutions contained 1.25% (v/v) crop oil concentrate.
(§7) Applications were made by injecting with a pipetter appropriate amounts of the application solutions, individually and sequentially, into the aqueous layer of the paddy. Control plants were treated in the same manner with the solvent blank. Applications were made so that all treated plant material received the same concentrations of acetone and crop oil concentrate. […]

[2] = test system: FIMMI (Fimbristylis miliacea, globe fringerush); test: as above; assay type: in vivo, Fimbristylis miliacea (L.) Vahl
Protocol: as §1, §2, §3, §4, §5, §6, §7

[3] = test system: LAMPU (Lamium purpureum, purple deadnettle); test: Post-emergence foliar-applied weed control in cereal crops, greenhouse (Example III); assay type: in vivo, Lamium purpureum (L.)
Protocol: Seeds of the desired test plant species were planted in Sun Gro MetroMix® 306 planting mixture, which typically has a pH of 6.0 to 6.8 and an organic matter content of about 30 percent, in plastic pots with a surface area of 103.2 square centimeters (cm^2). When required to ensure good germination and healthy plants, a fungicide treatment and/or other chemical or physical treatment was applied. The plants were grown for 7-36 days in a greenhouse with an approximate 14 hour photoperiod which was maintained at about 18° C. during the day and 17° C. during the night. Nutrients and water were added on a regular basis and supplemental lighting was provided with overhead metal halide 1000-Watt lamps as necessary. The plants were employed for testing when they reached the second or third true leaf stage.
Treatments consisted of the benzyl ester of 4-amino-3-chloro-5-fluoro-6-(4-chloro-2-fluoro-3-methoxy-phenyl)pyridine-2-carboxylic acid (Compound A), formulated as an SC (suspension concentrate), and a second cereal herbicide alone and in combination.
Measured aliquot of benzyl ester of 4-amino-3-chloro-5-fluoro-6-(4-chloro-2-fluoro-3-methoxy-phenyl)pyridine-2-carboxylic acid (Compound A) was placed in 25 milliliter (mL) glass vials and diluted in a volume of 1.25% (v/v) Agri-dex crop oil concentrated to obtain stock solutions. Compound requirements are based upon a 12 mL application volume at a rate of 187 liters per hectare (L/ha). Spray solutions of the second cereal herbicide and experimental compound mixtures were prepared by adding the stock solutions to the appropriate amount of dilution solution to form 12 mL spray solution with active ingredients in two- and three-way combinations. Formulated compounds were applied to the plant material with an overhead Mandel track sprayer equipped with an 8002E nozzle calibrated to deliver 187 L/ha over an application area of 0.503 square meters (m^2) at a spray height of 18 inches (46 cm) above average plant canopy. Control plants were sprayed in the same manner with the solvent blank.
The treated plants and control plants were placed in a greenhouse as described above and watered by sub-irrigation to prevent wash-off of the test compounds. After 20-22 days, the condition of the test plants as compared with that of the control plants was determined visually and scored on a scale of 0 to 100 percent where 0 corresponds to no injury and 100 corresponds to complete kill.
Colby's equation was used to determine the herbicidal effects expected from the mixtures (Colby, S. R. 1967. Calculation of the synergistic and antagonistic response of herbicide combinations. Weeds 15:20-22.).
The following equation was used to calculate the expected activity of mixtures containing two active ingredients, A and B: Expected=A+B−(A×B/100)

COc1c(Cl)ccc(-c2nc(C(=O)OCc3ccccc3)c(Cl)c(N)c2F)c1F [Compound A Benzyl Ester]
Visual Weed Control (%) - 21 DAA ECHCO Obs ([1]; Table 39, 4.38 gae/ha alone): 45% | Visual Weed Control (%) - 21 DAA ECHCO Obs ([1]; Table 39, 8.75 gae/ha alone): 30% | Visual Weed Control (%) - 21 DAA ECHCO Obs ([1]; Table 39, 17.5 gae/ha alone): 95% | Visual Weed Control (%) - 21 DAA FIMMI Obs ([2]; Table 48, 8 gae/ha alone): 15% | Visual Weed Control (%) - 21 DAA FIMMI Obs ([2]; Table 48, 16 gae/ha alone): 65% | Visual Weed Control (%) - 21 DAA FIMMI Obs ([2]; Table 48, 32 gae/ha alone): 75% | Weed Control LAMPU Obs ([3]; Table 51, after 20-22 days, 8.75 gai/ha alone): 83% | Weed Control LAMPU Obs ([3]; Table 57, after 20-22 days, 8.75 gai/ha Compound A Benzyl Ester alone): 83%
